These results are taken from patent US20260183274A1, “PDK1 REGULATORY COMPOUND AND COMPOSITION CONTAINING THE SAME” (PROVIBIO CO., LTD., priority 2024, published 2026).

Each structure is given as a SMILES string.

In general, viability refers to the share of living cells, or the viability signal relative to a control.

The subject of data set [1] is T cells isolated from mouse spleens. As to the kind of experiment: T cell proliferation inhibition (CFSE flow cytometry, anti-CD3/anti-CD28 stimulation). Type of data set: cell-based. The conditions noted are these: mouse spleen T cells, 3 days; for inhibition at 0.01 µM / inhibition at 0.1 µM / inhibition at 1 µM / inhibition at 10 µM / inhibition at 30 µM / inhibition at 50 µM: Mus musculus, T-cell, 72 h, read-out: Proliferation inhibition rate (%). The procedure, abridged: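 Splenic T cells from 7-week-old C57BL/6 mice were MACS-isolated, CFSE-labelled, seeded at 2×10^5 cells/well and activated with anti-CD3/anti-CD28 (0.5 μg/mL each). Compound at 10 nM–50 μM (six levels, triplicate) was present for 3 days at 37 °C before flow cytometric readout of proliferation inhibition rate.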
(In general: A flow cytometer gives signals particle by particle.)

The test system of data set [2] is Human B Lymphocyte cell line, SU-DHL-8. The data set is described as follows: Relative cell viability CCK-8, SU-DHL-8. The note with it: 48 hours, untreated (DMSO) = 100%; for viability at 1 µM / viability at 10 µM / viability at 30 µM / viability at 50 µM: Homo sapiens, SU-DHL-8, 48 h; for viability at 1 µM: read-out: Relative cell viability (%), SU-DHL-8, 1 μM; for viability at 10 µM: read-out: Relative cell viability (%), SU-DHL-8, 10 μM; for viability at 30 µM: read-out: Relative cell viability (%), SU-DHL-8, 30 μM; for viability at 50 µM: read-out: Relative cell viability (%), SU-DHL-8, 50 μM. Type of data set: cell-based. In a few lines:
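Cells grown in RPMI-1640 with 10% FBS, treated with compound at several concentrations, then given CCK-8 for 4 h at 37° C. Viability expressed as percent of DMSO-treated cells.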

For `Nc1ncccc1C(=O)NCCCCCCCCCCCCN1CCN(Cc2ccc(F)cc2)CC1` [Compound 27, 2-Amino-N-(12-(4-(4-fluorobenzyl)piperazin-1-yl)dodecyl)nicotinamide], the inhibition at 0.01 µM in data set [1] (compound 10 nM) worked out at 2.27%. Besides, the inhibition at 0.1 µM in data set [1] (compound 100 nM) was determined as 83.3%. In data set [1] (compound 1 μM), the inhibition at 1 µM came to 100%. The inhibition at 10 µM in data set [1] (compound 10 μM) is 100%. Also, the inhibition at 30 µM in data set [1] (compound 30 μM) was determined as 100%. Also, the inhibition at 50 µM in data set [1] (compound 50 μM) is 100%. In addition, in data set [2], the viability at 1 µM was found to be 6.24%, the viability at 10 µM is 4.97%, the viability at 30 µM is 2.03% and the viability at 50 µM came out at 0.56%.
Take `Nc1ncccc1C(=O)CCCCCCCCCCCCCN1CC2CCC(C1)O2` [Compound 131, 1-(2-aminopyridin-3-yl)-14-(8-oxa-3-azabicyclo[3.2.1]octan-3-yl)tetradecan-1-one]: the inhibition at 0.01 µM in data set [1] (compound 10 nM) is -6.12%. Besides, in data set [1] (compound 100 nM), the inhibition at 0.1 µM turned out to be 100%. For the same compound, in data set [1] (compound 1 μM), the inhibition at 1 µM is 100%. For the same compound, the inhibition at 10 µM in data set [1] (compound 10 μM) stood at 100%. In addition, in data set [1] (compound 30 μM), the inhibition at 30 µM amounted to 100%. Further, the inhibition at 50 µM in data set [1] (compound 50 μM) turned out to be 100%. Moreover, in data set [2], the viability at 1 µM is 44.8%, the viability at 10 µM is 42.1%, the viability at 30 µM turned out to be 42.7% and the viability at 50 µM was 42.5%.
For the compound `CC1CCN(CCCCCCCCCCCCNC(=O)c2cccnc2N)C1` (centres unmarked) [Compound 24, 2-Amino-N-(12-(3-methylpyrrolidin-1-yl)dodecyl) nicotinamide], the “Proliferation inhibition rate (%)” value in data set [1] (compound 10 nM) is listed as −7.33%; in data set [1] (compound 100 nM), 100.00%; in data set [1] (compound 1 μM), 100.00%; in data set [1] (compound 10 μM), 100.00%; in data set [1] (compound 30 μM), 100.00%; in data set [1] (compound 50 μM) it was 100.00%. Besides, the “Relative cell viability (%), SU-DHL-8” value in data set [2] (1 μM) is on record as 8.38%; in data set [2] (10 μM), 1.65%; in data set [2] (30 μM) it was 0.62%.
Regarding `Nc1ncccc1C(=O)NCCCCCCCCCCCCN1CCS(=O)(=O)CC1` [Compound 25, 2-Amino-N-(12-(1,1-dioxidothiomorpholino)dodecyl) nicotinamide], the “Proliferation inhibition rate (%)” value in data set [1] (compound 10 nM) was −2.67%; in data set [1] (compound 100 nM), 89.43%; in data set [1] (compound 1 μM), 100.00%; in data set [1] (compound 10 μM) it was 100.00%; in data set [1] (compound 30 μM), 100.00%; in data set [1] (compound 50 μM) it was 100.00%. In addition, the “Relative cell viability (%), SU-DHL-8” value in data set [2] (1 μM) turned out to be 9.73%; in data set [2] (10 μM) it was 1.26%; in data set [2] (30 μM), 0.11%; in data set [2] (50 μM), 0.95%.
For the compound `Nc1ncccc1C(=O)NCCCCCCCCCCCCN1CC=CC1` [Compound 129, 2-amino-N-(12-(2,5-dihydro-1H-pyrrol-1-yl)dodecyl) nicotinamide], the “Proliferation inhibition rate (%)” value in data set [1] (compound 10 nM) was 0.00%; in data set [1] (compound 100 nM), 90.00%; in data set [1] (compound 1 μM), 100.00%; in data set [1] (compound 10 μM) it was 100.00%; in data set [1] (compound 30 μM), 100.00%; in data set [1] (compound 50 μM), 100.00%. Moreover, the “Relative cell viability (%), SU-DHL-8” value is reported as 34.26% in data set [2] (1 μM), 33.99% in data set [2] (10 μM), 35.05% in data set [2] (30 μM) and 34.27% in data set [2] (50 μM).
Take `Nc1nc(NC(=O)CCCCCCCCCCCCN2CCNCC2)nc2nc[nH]c12` [Compound 8, 12-(piperazin-1-yl)dodecyl-N-(6-aminopurine-2-yl) carboxamide]: the inhibition at 0.01 µM in data set [1] (compound 10 nM) is 4.55%. The inhibition at 0.1 µM in data set [1] (compound 100 nM) was 32.5%. Besides, the inhibition at 1 µM in data set [1] (compound 1 μM) is 100%. In data set [1] (compound 10 μM), the inhibition at 10 µM worked out at 100%. In addition, in data set [1] (compound 30 μM), the inhibition at 30 µM was 100%. Further, the inhibition at 50 µM in data set [1] (compound 50 μM) was 100%. In data set [2], the viability at 1 µM stood at 10.8%, the viability at 10 µM worked out at 6.49%, the viability at 30 µM amounted to 5.07% and the viability at 50 µM is 4.49%.
Consider `Nc1ncccc1C(=O)NCCCCCCCCCCCCN1CC(F)(F)C1` [Compound 122, 2-Amino-N-(12-(3,3-difluoroazetidin-1-yl)dodecyl) nicotinamide], for which the “Proliferation inhibition rate (%)” value in data set [1] (compound 10 nM) came out at 0.00%; in data set [1] (compound 100 nM), 0.00%; in data set [1] (compound 1 μM), 80.00%; in data set [1] (compound 10 μM), 100.00%; in data set [1] (compound 30 μM) it was 100.00%; in data set [1] (compound 50 μM), 100.00%. Further, the “Relative cell viability (%), SU-DHL-8” value in data set [2] (1 μM) was found to be 31.84%; in data set [2] (10 μM), 31.91%; in data set [2] (30 μM) it was 32.93%; in data set [2] (50 μM), 35.70%.
Take `CN1CCN(C2CCN(CCCCCCCCCCCCNC(=O)c3cccnc3N)CC2)CC1` [Compound 124, 2-Amino-N-(12-(4-(4-methylpiperazin-1-yl)piperidin-1-yl)dodecyl)nicotinamide]: the inhibition at 0.01 µM in data set [1] (compound 10 nM) came to 0%. The inhibition at 0.1 µM in data set [1] (compound 100 nM) came to 20%. The inhibition at 1 µM in data set [1] (compound 1 μM) amounted to 30%. Moreover, the inhibition at 10 µM in data set [1] (compound 10 μM) worked out at 100%. In addition, in data set [1] (compound 30 μM), the inhibition at 30 µM was determined as 100%. In addition, the inhibition at 50 µM in data set [1] (compound 50 μM) is 100%. In data set [2], the viability at 1 µM worked out at 30.4%, the viability at 10 µM is 30.7%, the viability at 30 µM was determined as 32.1% and the viability at 50 µM was determined as 31.7%.
On to `Nc1ncccc1C(=O)NCCCCCCCCCCCCn1nnc2cccnc21` [Compound 88, N-(12-(3H-[1,2,3]triazolo[4,5-b]pyridin-3-yl)dodecyl)-2-aminonicotinamide], for which the inhibition at 0.01 µM in data set [1] (compound 10 nM) is -3.22%. Moreover, the inhibition at 0.1 µM in data set [1] (compound 100 nM) was 4.29%. The inhibition at 1 µM in data set [1] (compound 1 μM) worked out at 56.3%. Moreover, the inhibition at 10 µM in data set [1] (compound 10 μM) was found to be 100%. The inhibition at 30 µM in data set [1] (compound 30 μM) was 100%. Besides, in data set [1] (compound 50 μM), the inhibition at 50 µM worked out at 100%. In data set [2], the viability at 1 µM amounted to 12.6%, the viability at 10 µM was determined as 5.98%, the viability at 30 µM was found to be 5.06% and the viability at 50 µM is 2.23%.
